According to patent publication US20250313558A1, “IMIDAZOLIDINE DERIVATIVE OR PHARMACEUTICALLY ACCEPTABLE SALT THEREOF, AND USE THEREOF” (CELLUS INC., priority 2023, published 2025):
Values belong to the compound of their own block, whether it stands above or below them.

What was measured:
Type in all cases: biochemical
ADAM10 = molecular target: T1, ADAM10 (Homo sapiens, UniProt O14672); experiment: FRET assay, inhibition of ADAM10
T1 sequence (O14672 214-748): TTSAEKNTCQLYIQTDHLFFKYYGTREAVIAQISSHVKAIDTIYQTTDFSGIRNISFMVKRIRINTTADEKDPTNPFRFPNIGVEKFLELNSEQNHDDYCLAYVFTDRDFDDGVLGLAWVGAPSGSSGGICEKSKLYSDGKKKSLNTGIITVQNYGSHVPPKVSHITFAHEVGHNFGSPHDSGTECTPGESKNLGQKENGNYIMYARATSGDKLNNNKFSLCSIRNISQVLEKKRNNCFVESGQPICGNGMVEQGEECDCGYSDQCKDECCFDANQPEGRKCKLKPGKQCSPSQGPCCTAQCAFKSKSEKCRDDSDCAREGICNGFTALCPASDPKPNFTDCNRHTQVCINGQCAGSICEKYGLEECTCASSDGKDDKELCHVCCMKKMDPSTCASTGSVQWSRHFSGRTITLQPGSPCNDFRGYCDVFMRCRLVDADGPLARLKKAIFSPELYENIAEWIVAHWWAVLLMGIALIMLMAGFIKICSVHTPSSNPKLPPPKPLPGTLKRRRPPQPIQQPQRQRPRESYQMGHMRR
Text: (§1) FRET assay is a method to detect and quantify the fluorescent signal generated when ADAM/ADAMTS proteins […] specific peptides.

ADAMTS5 = molecular target: T2, ADAMTS5 (Homo sapiens, UniProt Q9UNA0); experiment: FRET assay, inhibition of ADAMTS5
T2 sequence (Q9UNA0 262-930): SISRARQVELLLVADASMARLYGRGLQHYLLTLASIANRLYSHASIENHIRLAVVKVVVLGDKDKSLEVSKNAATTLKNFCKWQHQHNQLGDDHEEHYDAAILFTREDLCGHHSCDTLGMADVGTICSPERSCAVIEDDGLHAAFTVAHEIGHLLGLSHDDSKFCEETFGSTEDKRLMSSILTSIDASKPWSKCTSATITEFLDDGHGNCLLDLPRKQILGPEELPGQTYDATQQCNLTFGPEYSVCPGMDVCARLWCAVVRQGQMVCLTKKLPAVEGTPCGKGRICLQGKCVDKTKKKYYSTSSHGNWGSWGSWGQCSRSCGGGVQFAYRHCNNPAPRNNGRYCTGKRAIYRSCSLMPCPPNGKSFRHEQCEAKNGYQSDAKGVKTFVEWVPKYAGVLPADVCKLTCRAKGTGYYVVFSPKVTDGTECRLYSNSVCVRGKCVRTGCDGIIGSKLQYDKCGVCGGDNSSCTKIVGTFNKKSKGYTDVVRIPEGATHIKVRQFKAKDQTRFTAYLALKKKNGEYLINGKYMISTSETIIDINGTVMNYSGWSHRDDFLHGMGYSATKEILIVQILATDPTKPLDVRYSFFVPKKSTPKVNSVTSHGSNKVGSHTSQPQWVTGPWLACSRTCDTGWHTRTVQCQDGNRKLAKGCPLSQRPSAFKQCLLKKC
Procedure: The control compound GLPG-1972 and four effective compounds (CLS-S210 (Formula 2), CLS-S282 (Formula 3), CLS-S213 (Formula 4), and CLS-S214 (Formula 5)) were treated with ADAMTS5, ADAMTS4, ADAM10, and ADAM17 proteins to perform Fluorescence Resonance Energy Transfer (FRET) evaluation. FRET assay is a method to detect and quantify the fluorescent signal generated when ADAM/ADAMTS proteins […] specific peptides.

ADAM17 = ADAM17 (Homo sapiens, UniProt P78536); experiment: FRET assay, inhibition of ADAM17
Sequence of ADAM17 (P78536 215-824, species assumed): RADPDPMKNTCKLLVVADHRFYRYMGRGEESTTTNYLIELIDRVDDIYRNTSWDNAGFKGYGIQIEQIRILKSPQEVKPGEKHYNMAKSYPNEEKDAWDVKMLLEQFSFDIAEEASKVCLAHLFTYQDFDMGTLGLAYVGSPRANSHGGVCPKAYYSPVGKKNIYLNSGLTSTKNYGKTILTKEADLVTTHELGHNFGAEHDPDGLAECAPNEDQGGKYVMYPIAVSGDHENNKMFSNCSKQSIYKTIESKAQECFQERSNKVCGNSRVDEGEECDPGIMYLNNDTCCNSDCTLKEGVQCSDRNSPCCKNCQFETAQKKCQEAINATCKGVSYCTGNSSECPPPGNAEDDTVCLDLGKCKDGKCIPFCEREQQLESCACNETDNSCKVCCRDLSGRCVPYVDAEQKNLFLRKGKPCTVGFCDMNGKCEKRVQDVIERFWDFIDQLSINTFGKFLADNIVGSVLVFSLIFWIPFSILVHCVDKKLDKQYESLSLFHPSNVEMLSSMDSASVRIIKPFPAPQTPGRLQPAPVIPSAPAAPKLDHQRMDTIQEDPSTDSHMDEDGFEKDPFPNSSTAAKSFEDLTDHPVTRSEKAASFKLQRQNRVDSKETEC
Text: as §1

SMILES: CNC(=O)[C@@H](NC(=O)[C@H](CCCc1ccccc1)[C@H](C)N(O)C=O)C(C)(C)C [GI254023X]
- inhibition ability against ADAM10 (in words) (ADAM10): inhibit ADAM10 and ADAM17 at low concentrations

- IC50 (ADAMTS5): 65 nM
SMILES: C[C@H]1CN(C(=O)CC[C@@]2(C3CC3)NC(=O)NC2=O)CCN1c1cc(F)cc(F)c1 [GLPG-1972]

SMILES: CC(C)C[C@H](CC(=O)NO)C(=O)N[C@@H](Cc1ccc2ccccc2c1)C(=O)N[C@@H](C)C(N)=O [TAPI-0]
- inhibition ability against ADAM17 (in words) (ADAM17): inhibit ADAM10 and ADAM17 at low concentrations
